US20250034170A1, “SMALL MOLECULE MODULATORS OF GLUCOCEREBROSIDASE ACTIVITY AND USES THEREOF” (Vanqua Bio, Inc., priority 2021, published 2025)

Target: T1, GCase (Homo sapiens, UniProt P04062)
T1 construct: endogenous in cells; host or cells: HeLa cells
T1 sequence (P04062 40-536): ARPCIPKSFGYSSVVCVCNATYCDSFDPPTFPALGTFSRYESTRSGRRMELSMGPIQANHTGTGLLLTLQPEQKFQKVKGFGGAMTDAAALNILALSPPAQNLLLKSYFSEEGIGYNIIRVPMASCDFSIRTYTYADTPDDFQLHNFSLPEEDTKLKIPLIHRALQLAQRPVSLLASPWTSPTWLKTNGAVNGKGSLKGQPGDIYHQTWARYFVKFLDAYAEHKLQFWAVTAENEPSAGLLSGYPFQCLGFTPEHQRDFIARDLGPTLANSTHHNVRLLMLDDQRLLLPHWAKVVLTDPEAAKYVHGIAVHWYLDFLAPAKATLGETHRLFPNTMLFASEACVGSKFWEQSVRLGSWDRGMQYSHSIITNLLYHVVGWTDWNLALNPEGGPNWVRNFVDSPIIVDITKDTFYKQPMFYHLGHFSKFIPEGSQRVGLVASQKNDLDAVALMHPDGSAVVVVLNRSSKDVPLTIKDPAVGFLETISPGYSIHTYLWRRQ
Experiment: activation of GCase in a live cell PFB assay in HELA cells
Assay type: cell-based
Procedure: Exemplary compounds were evaluated for activation of GCase in a live cell PFB assay in HELA cells (essentially as described in Ysselstein et al., “LRRK2 kinase activity regulates lysosomal glucocerebrosidase in neurons derived from Parkinson's disease patients” Nature Communications (2019) 10:5570). […] EC50 ranges: A: <10 μM; B: >10-50 μM; C: >50-100 μM; D: >100 μM.

[1] = activation of GCase, EC50 ranges

EC50 [1] [µM] | EC50 (EC50 given as range classes) [µM] | SMILES
> 100 |  | Cc1cnc(C(F)(F)F)nc1N1CC2(CCN(c3cnc4cnn(CC(F)F)c4n3)CC2)CC1=O [Cmpd 956]
< 10 |  | O=C1N(Cc2ccnc(C(F)(F)F)c2)CCC12CCN(c1cnc3cnn(CC(F)F)c3n1)CC2 [Cmpd 357]
< 10 |  | FC(F)(F)Cn1ncc2ncc(N3CCC4(CN(c5ccnc(C(F)(F)F)c5)C4)C3)nc21 [Cmpd 924]
10 to 50 |  | Cc1nccn1-c1cncc(N2CCC3(CCN(c4ccc(C(F)(F)F)nc4)C3)CC2)n1 [Cmpd 250]
10 to 50 |  | FC(F)Cn1ncc2ncc(N3CCC4(CCN(c5cccnc5C(F)(F)F)CC4)C3)nc21 [Compound 170, 2-[1-(2,2-difluoroethyl)-1H-pyrazolo[3,4-b]pyrazin-6-yl]-8-[2-(trifluoromethyl)pyridin-3-yl]-2,8-diazaspiro[4.5]decane]
10 to 50 |  | O=C1N(c2cnc3cnn(CC(F)F)c3n2)CCC12CCN(c1ccc(C(F)(F)F)cn1)C2 (stereo not shown) [Cmpd 520]
 | 10 to 50 | Cc1nc(N2CCC3(CCN(c4ncc5c(C)nn(CC(F)(F)F)c5n4)CC3)C2)cc(C(F)(F)F)n1 [Cmpd 619]
10 to 50 |  | O=C1CC2(CCN(c3ncc4cnn(CC(F)F)c4n3)CC2)CN1c1cncc(C(F)(F)F)n1 [Cmpd 288]
10 to 50 |  | Cc1nc(N2CCC3(C2)CN(c2ncc4cnn(CC(F)(F)F)c4n2)C3)cc(C(F)(F)F)n1 [Cmpd 554]
 | 10 to 50 | FC(F)(F)c1ccc(N2CCC3(CCN(c4cncc(-c5nncs5)n4)CC3)C2)nn1 [Cmpd 825]
 | < 10 | Cc1nc(N2CC3(CCN(c4cc5c(cn4)cnn5CC(F)F)CC3)C2)cc(C(F)(F)F)n1 [Cmpd 632]
10 to 50 |  | FC(F)(F)c1ccc(N2CC3(CCN(c4cnc5cnn(C6COC6)c5n4)C3)C2)cn1 [Cmpd 660]
< 10 |  | O=C1CC2(CCN(c3cnc4cnn(CC(F)F)c4n3)CC2)CN1Cc1ccc(F)cc1 [Cmpd 444]
 | < 10 | Cc1ccc(N2CC3(CCN(c4cnc5cnn(CC(F)F)c5n4)CC3)CC2=O)c(OC(F)F)n1 [Cmpd 781]
< 10 |  | FC(F)Cn1ncc2ncc(N3CCC4(CC3)CC(Oc3ccnc(C(F)(F)F)c3)C4)nc21 [Cmpd 703]
10 to 50 |  | FC(F)Cn1ncc2ncc(N3CCC4(CCN(c5ncccc5C(F)(F)F)CC4)C3)nc21 [Compound 151, 2-[1-(2,2-difluoroethyl)-1H-pyrazolo[3,4-b]pyrazin-6-yl]-8-[3-(trifluoromethyl)pyridin-2-yl]-2,8-diazaspiro[4.5]decane]
 | 50 to 100 | Cc1nc(N2CC3(CCN(c4cc5c(cn4)c(C)nn5CC(F)F)C3)C2)cc(C(F)(F)F)n1 [Cmpd 612]
10 to 50 |  | Cc1cc(N2CC3(CCN(c4cnc5c(C)nn(C6COC6)c5n4)C3)C2)nc(C)n1 [Cmpd 645]
< 10 |  | Cc1ncc(N2CCC3(CCN(c4cnc5cnn(CC(F)F)c5n4)CC3)C2)cn1 [Cmpd 759]
10 to 50 |  | FC(F)Cn1ncc2ncc(N3CCC4(CCCC4COc4cccc(C(F)(F)F)n4)CC3)nc21 (stereo not shown) [Compound 80, 8-[1-(2,2-difluoroethyl)-1H-pyrazolo[3,4-b]pyrazin-6-yl]-1-({[6-(trifluoromethyl)pyridin-2-yl]oxy}methyl)-8-azaspiro[4.5]decane]
10 to 50 |  | O=C1N(c2cncc(C(F)(F)F)n2)CCC12CCN(c1cnc3cnn(CC(F)(F)F)c3n1)CC2 [Cmpd 272]

EC50 [1] [µM] | EC50 (EC50 given as range classes) [µM] | SMILES
< 10 |  | Cc1nnc(-c2cncc(N3CCC4(CN(c5ccnc(C(F)(F)F)c5)C4)C3)n2)s1 [Cmpd 1052]
< 10 |  | CC(c1cncc(Cl)c1)N1CC2(CCN(c3cnc4cnn(CC(F)F)c4n3)CC2)CC1=O (stereo not shown) [Cmpd 968]
< 10 |  | Fc1ncc(N2CCC3(CCN(c4cnc5cnn(CC(F)F)c5n4)CC3)C2)nc1C(F)(F)F [Cmpd 767]
10 to 50 |  | Cc1nc(N2CCC3(CCN(c4ncc5cnn(CC(F)F)c5n4)C3)C2)cc(C(F)(F)F)n1 (stereo not shown) [Cmpd 540]
10 to 50 |  | CCc1ncc(N2CC3(CCN(c4cnc5cnn(CC(F)F)c5n4)C3)C2)cn1 [Cmpd 462]
10 to 50 |  | O=C1CC2(CCN(c3cnc4cnn(CC(F)F)c4n3)CC2)CCN1c1ccc(C(F)(F)F)cn1 [Cmpd 293]
< 10 |  | O=C1CC2(CCN(c3ncc4cnn(CC(F)F)c4n3)CC2)CN1c1cc(C(F)(F)F)ccn1 [Cmpd 286]
< 10 |  | O=C1N(Cc2cncc(C(F)(F)F)c2)CCC12CCN(c1cnc3cnn(CC(F)F)c3n1)CC2 [Cmpd 332]
 | > 100 | Cc1ncc(N2CC3(CCN(c4cnc5cnn(CC(F)F)c5n4)C3)C2)c(C(F)(F)F)n1 [Cmpd 592]
< 10 |  | O=C1CC2(CCN(c3cnc4cnn(CC(F)F)c4n3)CC2)CN1Cc1ccc(Cl)c(F)c1 [Cmpd 448]
> 100 |  | Cc1sc(N2CC3(CCN(c4cnc5cnn(CC(F)F)c5n4)C3)C2)nc1C(F)(F)F [Cmpd 1047]
 | < 10 | Cc1ncc(N2CC3(CCN(c4ncc5c(C)nn(CC(F)F)c5n4)C3)C2)c(C(F)(F)F)n1 [Cmpd 591]
10 to 50 |  | FC(F)Cn1ncc2cnc(N3CCC4(CN(c5ccnc(C(F)(F)F)c5)C4)C3)nc21 [Cmpd 295]
 | 10 to 50 | Cc1nc(N2CCC3(C2)CN(c2ncc4c(C)nn(CC(F)(F)F)c4n2)C3)cc(C(F)(F)F)n1 [Cmpd 617]
10 to 50 |  | Cc1nc(N2CC3(CCN(c4ncc5c(C)nn(CC(F)F)c5n4)CC3)C2)cc(C(F)(F)F)n1 [Cmpd 569]
< 10 |  | O=C1N(c2ccc(C(F)(F)F)nc2)C(=O)C2(CCN(c3cnc4cnn(CC(F)F)c4n3)CC2)N1CCC1CC1 [Cmpd 880]
10 to 50 |  | CCc1nn(C2COC2)c2nc(N3CCC4(CN(c5cc(C(F)(F)F)nc(C)n5)C4)C3)cnc12 [Cmpd 1065]
50 to 100 |  | O=C(c1ccc2cc[nH]c2c1)N1CCCC2(CC(Oc3cnccc3C(F)(F)F)C2)C1 (stereo not shown) [Compound 40, 6-(1H-indole-6-carbonyl)-2-{[4-(trifluoromethyl)pyridin-3-yl]oxy}-6-azaspiro[3.5]nonane]
10 to 50 |  | O=C1CC2(CN1c1ccc(F)c(C(F)(F)F)c1)C1CC2CN(c2cnc3cnn(CC(F)F)c3n2)C1 (stereo not shown) [Cmpd 722]
< 10 |  | Cc1nn(CC(F)F)c2nc(N3CCC4(CC3)CCN(c3nccc(C(F)(F)F)n3)C4=O)cnc12 [Cmpd 281]
10 to 50 |  | CCc1nc(N2CC3(CCN(c4cnc5cnn(CC(F)F)c5n4)C3)C2)cc(C(F)(F)F)n1 [Cmpd 1089]

EC50 [1] [µM] | EC50 (EC50 given as range classes) [µM] | SMILES
< 10 |  | CC1CN(c2cc(C(F)(F)F)ccn2)CC12CCN(c1cnc3cnn(CC(F)F)c3n1)CC2 (stereo not shown) [Cmpd 748]
< 10 |  | FC(F)Cn1ncc2ncc(N3CCC4(CC3)CCN(c3cccnc3C(F)(F)F)C4)nc21 [Compound 146, 8-[1-(2,2-difluoroethyl)-1H-pyrazolo[3,4-b]pyrazin-6-yl]-2-[2-(trifluoromethyl)pyridin-3-yl]-2,8-diazaspiro[4.5]decane]
 | 10 to 50 | FC(F)Cn1ncc2ncc(N3CCC4(CC3)CC(Nc3cccc(C(F)(F)F)n3)C4)nc21 [Cmpd 232]
 | 50 to 100 | Cc1ncc(N2CC3(CCN(c4ncc5c(C)nn(C6COC6)c5n4)C3)C2)c(C(F)(F)F)n1 [Cmpd 600]
 | > 100 | FC(F)Cn1ncc2ncc(N3CC4(CCN(c5cccc(C(F)(F)F)n5)C4)C3)nc21 [Compound 185, 2-[1-(2,2-difluoroethyl)-1H-pyrazolo[3,4-b]pyrazin-6-yl]-6-[6-(trifluoromethyl)pyridin-2-yl]-2,6-diazaspiro[3.4]octane]
10 to 50 |  | Cc1nc(N2CC3(CCN(c4ncc5cnn(CC(C)(F)F)c5n4)C3)C2)cc(C(F)(F)F)n1 [Cmpd 1135]
 | 10 to 50 | Cc1ccccc1S(=O)(=O)N1CC2(CCN(c3cnc4cnn(CC(F)F)c4n3)C2)C1 [Cmpd 394]
 | > 100 | Cc1nc(N2CCC3(CCN(c4cnc5c(C)nn(CC(F)(F)F)c5n4)CC3)C2)cc(C(F)(F)F)n1 [Cmpd 611]
10 to 50 |  | Cc1ncc(N2CC3(CCN(c4cnc5cnn(CC(F)F)c5n4)CC3)C2)c(C(F)(F)F)n1 [Cmpd 561]
< 10 |  | CC1CC2(CCN(c3cc(C(F)(F)F)ccn3)C2)CCN1c1cnc2cnn(CC(F)F)c2n1 (stereo not shown) [Cmpd 745]
 | < 10 | FC(F)Cn1ncc2ncc(N3CCOC4(CCN(c5cncc(C(F)(F)F)c5)CC4)C3)nc21 [Cmpd 210]
10 to 50 |  | O=S(=O)(c1ccc(F)cc1)N1CC2(CCN(c3cnc4cnn(CC(F)F)c4n3)C2)C1 [Cmpd 373]
10 to 50 |  | FC(F)Cn1ncc2ncc(N3CCC4(CCN(c5cnnc(C(F)(F)F)c5)C4)CC3)nc21 [Cmpd 731]
< 10 |  | Cc1nc(N2CCC3(CCN(c4cnc5cnn(C6COC6)c5n4)C3)C2)cc(C(F)(F)F)n1 (stereo not shown) [Cmpd 542]
< 10 |  | O=C1N(Cc2cc(F)cc(F)c2)CCC12CCN(c1cnc3cnn(CC(F)F)c3n1)CC2 [Cmpd 358]
< 10 |  | Cc1nc(N2CC3(CCN(c4cnc5c(n4)n(CC(F)F)c(=O)n5C)C3)C2)cc(C(F)(F)F)n1 [Cmpd 1077]
10 to 50 |  | Cc1nn(CC(F)F)c2nc(N3CCC4(CCN(c5cc(C(F)(F)F)ccn5)CC4)C3)cnc12 [Compound 140, 2-[1-(2,2-difluoroethyl)-3-methyl-1H-pyrazolo[3,4-b]pyrazin-6-yl]-8-[4-(trifluoromethyl)pyridin-2-yl]-2,8-diazaspiro[4.5]decane]
10 to 50 |  | FC(F)Cn1ncc2ncc(N3CCC4(CCN(c5ccc(C(F)(F)F)cn5)C4)C3)nc21 (stereo not shown) [Cmpd 483]
< 10 |  | O=S(=O)(c1cccc(F)c1)N1CC2(CCN(c3cnc4cnn(CC(F)F)c4n3)C2)C1 [Cmpd 375]
